Experimental data: paper PMC11200976, “Pitavastatin Calcium Confers Fungicidal Properties to Fluconazole by Inhibiting Ubiquinone Biosynthesis and Generating Reactive Oxygen Species” (Antioxidants, 2024)
Read-outs that look alike come from different tables or passages of the source.

Legend:
[1] = system: C. albicans clinical isolates; assay: Supra-MIC growth (SMG) of FLC in clinical isolates; type: cell-based, Candida albicans; details: n = 7 isolates
[2] = system: C. albicans; assay: MIC assays (CLSI M27 broth microdilution); type: cell-based, Candida albicans; details: for MIC: Candida albicans
Experimental: The MIC assays for C. albicans were conducted following the broth microdilution protocol outlined by the Clinical and Laboratory Standards Institute (CLSI) protocols (M27, 4th edition). In brief, FDA-approved drugs were diluted in 96-well plates at two-fold the final concentration, with 4 μg/mL FLC. This dilution was combined with the cell suspension with a concentration of 1 × 10^3 cells/mL. The plates were incubated at a temperature of 30 °C for 48 h without agitation.

[3] = system: Candida guilliermondii clinical isolates; assay: Supra-MIC growth (SMG) of FLC in clinical isolates; type: cell-based; details: n = 7 isolates
[4] = system: Candida glabrata clinical isolates; assay: Supra-MIC growth (SMG) of FLC in clinical isolates; type: cell-based; details: n = 4 isolates
[5] = system: C. albicans; assay: Determination of MFC; type: cell-based, Candida albicans; details: for MFC: Candida albicans
Experimental: The determination of MFC followed the previously described method. In brief, a tested drug at a concentration two times higher than the final concentration was diluted in a two-fold serial dilution manner across ten columns of the plate, with each well containing 100 μL of the drug. Subsequently, 100 μL of C. albicans cultures (1 × 10^4 cells/mL) were transferred into wells with and without any drugs as the control. Following incubation at 30 °C for 48 h, a 200 μL aliquot per well was removed and evenly spread on SDA plates, which were then incubated at 30 °C for 48 h. The MFC value was determined as the lowest drug concentration at which 99.9% of fungal colonies were eradicated compared to the control group.

[6] = system: C. albicans; assay: Murine invasive C. albicans infections (C57BL/6 mice); type: in vivo, Candida albicans
Experimental: . Before commencing drug therapy, the mice were inoculated with 200 μL of PBS containing 2 × 10^5 C. albicans cells via the lateral tail vein. […]. The mice were weighed, and their weights were recorded every three days while their survival was monitored daily for 30 days. Two-tailed unpaired t-tests were employed to assess the weight changes. Kaplan–Meier analyses were employed to assess the survival probabilities, while log-rank testing was utilized to determine the statistical significance of the survival curves. In the case of fungal burden analyses, the mice were closely monitored twice daily for any indications of infection and were euthanized humanely upon reaching the predetermined endpoints. Subsequently, each mouse’s spleen, liver, and kidneys were harvested and homogenized in sterile PBS after sacrifice, followed by streaking onto SDA agar plates. Following a 48 h incubation period, the colonies were quantified, and colony-forming units (CFUs) were calculated. For histopathological analysis, kidney tissues from mice infected for 6 or 10 days were procured and fixed in buffered formalin. Subsequently, the tissues were embedded in paraffin, sectioned into 3–4 μm slices, and subjected to PAS staining using established protocols. All experimental procedures involving animals were approved by the Tongji University Animal Care Committee (No.: TJAA00322101).

[7] = system: C. albicans; assay: Spotting assay; type: cell-based, Candida albicans; details: 4 μM PIT; compared to wild-type strain and other heterozygous gene deletion mutants
Experimental: The spotting assays were conducted following the previously described method. In summary, C. albicans cultures were adjusted to a cell density of 1 × 10^7 cells/mL using a hemacytometer. Subsequently, the cultures were serially diluted 1:10 and spotted onto a designated YPD solid medium containing specified concentrations of compounds. Following incubation at 30 °C for 48 h, photographs capturing the cell growth were taken, and the assays were replicated thrice.

[8] = Acute toxicity, Up-and-Down procedure (OECD 425), intraperitoneal; type: in vivo; details: C57BL/6, mouse, in vivo, ip, mice
Experimental: (§1) Following a previously described methodology, the intraperitoneal route was employed in adult mice. In brief, the primary test involved a sequential administration of doses at intervals of at least 48 h, with one mouse being dosed at a time. Initially, a dose below LD50 was administered intraperitoneally to a mouse. If the mouse survived, the subsequent mouse would receive 1.3 times the initial dose. Conversely, if the mouse died, the subsequent mouse would receive a dose decreased by 1.3 times the initial dose. Each mouse was monitored for 48 h before determining the subsequent mouse’s dosage and administration. The experiment was terminated upon five “survive or die” reversals within a consecutive set of six animals tested. Subsequently, the LD50 and its corresponding confidence interval were computed based on the conditions observed in all mice after the experiment.

[9] = system: C. albicans SC5314, SN152, cmp1-aid∆/cmp1-aid∆, and PADH1-UPC2 strains; assay: FLC disk diffusion assays (25 μg FLC disk, 5 μM adjuvant); type: cell-based, Candida albicans; details: PADH1-UPC2
Experimental: Yeast cells were cultured overnight at a temperature of 30 °C, and the resulting cell suspension was diluted to a concentration of 1 × 10^7 cells/mL in phosphate-buffered saline (PBS). At a concentration of 5 μM, the drugs were individually added to YPD plates for disk assays using a 25 μg FLC disk (6 mm, Liofilchem, Roseto degli Abruzzi, Italy). The plates were then incubated at 30 °C for 48 h. Subsequently, the disk was transferred to a drug-free YPD plate, which was incubated at 30 °C for 24 h and photographed.

[10] = system: C. albicans; assay: Dose–matrix titration assays (synergy, with YPD recovery plates); type: cell-based, Candida albicans; details: FLC ≤4 μg/mL; YPD, 30 °C, 48 h
Experimental: The synergistic effects of drugs were conducted following the same procedure as the MIC assays. Specifically, 50 μL of drug A was distributed through two-fold serial dilution across seven plate columns. Subsequently, 50 μL of drug B was distributed in a two-fold serial dilution manner along seven rows of the plate. Furthermore, 100 μL of C. albicans cultures, adjusted to a density of 1 × 10^3 cells/mL, was dispensed into wells containing drugs and one control well devoid of any drugs. Before the 48 h OD600 readings, the plates were subjected to meticulous agitation to ensure the deposition of a representative 2 μL aliquot from each well onto newly prepared YPD recovery plates, thereby facilitating the evaluation of cellular recuperation following drug treatments. The recovery plates were subsequently incubated at a temperature of 30 °C for a duration ranging from 24 to 48 h, after which they were photographed. The experimental procedures were conducted in triplicate to ensure reliability and reproducibility.

[11] = system: ERG1, ERG11, and ERG251 genes; type: cell-based, Candida albicans; details: 2 μM PIT alone, 8 h
[12] = system: C. albicans; assay: Broth microdilution assay of synergistic lethality with 4 μg/mL FLC (recovery on drug-free YPD); type: cell-based, Candida albicans
[13] = system: mice; assay: Acute toxicity, Up-and-Down procedure (OECD 425), intraperitoneal; type: in vivo
Experimental: as §1

## OC(Cn1cncn1)(Cn1cncn1)c1ccc(F)cc1F [FLC, Fluconazole]
[1]; FLC alone
  SMG value of FLC: 0.1203
[1]; in combination with PIT, p = 0.002
  SMG value of FLC: 0
[2]; SEC14/sec14△, YPD + 0.5 μM PIT, read-out: MIC of FLC
  MIC: 1 µg/mL
[2]; SEC14/sec14△, YPD + 1 μM PIT, read-out: MIC of FLC
  MIC: 0.5 µg/mL
[2]; SEC14/sec14△, YPD, read-out: MIC of FLC
  MIC: 1 µg/mL
[2]; SN152, YPD, read-out: MIC of FLC
  MIC: 1 µg/mL
[2]; read-out: MIC of FLC, age3△/age3△, YPD + 0.5 μM PIT
  MIC: 0.25 µg/mL
[2]; read-out: MIC of FLC, age3△/age3△, YPD + 1 μM PIT
  MIC: 0.125 µg/mL
[3]; FLC alone
  SMG value of FLC: 0.0667
[3]; in combination with PIT, p = 0.0362
  SMG value of FLC: 0.0166
[4]; FLC alone
  SMG value of FLC: 0.3169
[4]; in combination with PIT, p = 0.0442
  SMG value of FLC: 0.0031
[5]; absence of PIT
  MFC: > 64 µg/mL
[5]; in the presence of PIT (1 μM)
  MFC: 2 µg/mL
[5]; in the presence of 1 μM PIT
  ratio of MFC to MIC of FLC: 4
[6]; after 1 mg/kg FLC ip for 3 days, 6 or 10 days after infection
  kidney fungal burden in cmp1-aidΔ/cmp1-aidΔ infected group compared to cmp1Δ/cmp1Δ infected group: notably greater
[6]; clinical isolate 283, FLC 4 mg/kg, PIT 3 mg/kg, 30-day observation period
  mortality rate: 50%
[6]; clinical isolate 283, FLC 4 mg/kg, PIT 3 mg/kg, ten mice per group
  average weight loss on the 15th day of infection: 1.16 ± 0.63 g

## O=C(O)C[C@H](O)C[C@H](O)/C=C/c1c(C2CC2)nc2ccccc2c1-c1ccc(F)cc1 [PIT, pitavastatin calcium]
[7]
  susceptibility of HMG1/hmg1Δ, ERG8/erg8Δ and IDI1/idi1Δ mutants to PIT: more susceptible
[8]
  LD50 at 48 h: 104 mg/kg
[2]; 100 μM exogenous ergosterol, SN152, MIC and spotting assays
  antifungal efficacy of PIT with exogenous ergosterol: negated
[2]; 100 μM exogenous mevalonate, SN152, MIC and spotting assays
  antifungal effects of PIT with exogenous mevalonate: mitigated
[2]; SEC14/sec14△, YPD, read-out: MIC of PIT
  MIC: 2 µM
[2]; SN152, YPD, read-out: MIC of PIT
  MIC: 2 µM
[2]; age3△/age3△, YPD, read-out: MIC of PIT
  MIC: 2 µM
[2]; control strain (wild-type), read-out: MIC of PIT
  MIC: 3.12 µg/mL
[2]; hac1△/hac1△, YPD, read-out: MIC of PIT
  MIC: 2 µM
[2]; hse1△/hse1△, YPD, read-out: MIC of PIT
  MIC: 2 µM
[2]; ire1△/ire1△, YPD, read-out: MIC of PIT
  MIC: 2 µM
[2]; mvb12△/mvb12△, YPD, read-out: MIC of PIT
  MIC: 2 µM
[2]; read-out: MIC of PIT, erg11∆/erg11∆ null mutant
  MIC: 0.195 µg/mL
[2]; snf7△/snf7△, YPD, read-out: MIC of PIT
  MIC: 2 µM
[2]; vps20△/vps20△, YPD, read-out: MIC of PIT
  MIC: 2 µM
[2]; vps22△/vps22△, YPD, read-out: MIC of PIT
  MIC: 2 µM
[2]; vps23△/vps23△, YPD, read-out: MIC of PIT
  MIC: 2 µM
[2]; vps28△/vps28△, YPD, read-out: MIC of PIT
  MIC: 2 µM
[2]; vps36△/vps36△, YPD, read-out: MIC of PIT
  MIC: 2 µM
[9]; SC5314, SN152, cmp1-aid∆/cmp1-aid∆
  effect on FLC tolerance in FLC disk diffusion, all four strains: made FLC fungicidal
[10]
  concentration that renders FLC fungicidal (no recovery on YPD solid medium): ≤ 3.125 µM
[5]; as low as
  concentration of PIT that renders FLC fungicidal: 1 µM
[11]
  mRNA expression level of ERG1 gene, upregulation: 2 fold
  mRNA expression level of ERG11 gene, upregulation: 2 fold
  mRNA expression level of ERG251 gene, upregulation: 2 fold
[12]; with 4 μg/mL FLC, tested 100 μM to 0.1953 μM, 30 °C, 48 h
  synergistic lethal concentration (converts FLC from fungistatic to fungicidal): ≤ 6.25 µM

## polymyxin B sulfate
[13]
  LD50: 25 mg/kg
[9]
  effect on FLC tolerance in FLC disk diffusion, PADH1-UPC2 strain: unsuccessful in reducing FLC tolerance
[10]
  concentration that renders FLC fungicidal (no recovery on YPD solid medium): ≤ 3.125 µM
[12]; concentration of the compound that is synergistically lethal with 4 μg/mL FLC, C. albicans, recovery on drug-free YPD
  Synergistic lethal concentrations: 6.25 µM
